Laboratory results published in patent publication US20240067668A1, “HETEROARYL DERIVATIVE COMPOUND AND USE THEREOF” (VORONOI INC., priority 2020, published 2024).

Legend:
BaF3-EGFR (WT) cells = experiment: Inhibitory activity on Ba/F3 cell proliferation (CellTiter-Glo, 72 hours); type: cell-based; conditions: Ba/F3 cells expressing EGFR WT
Summary of the method: (§1)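 Ba/F3 cells expressing wild-type EGFR or EGFR Del19/T790M/C797S, 3×10^3 per well, exposed 72 h at 37 °C to compound at 12 threefold dilutions, 0.00005-10 μM final. Viability by CellTiter-Glo 2.0; GI50 derived from growth relative to DMSO-treated cells.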

[1] = test system: BaF3-EGFR (Del19/T790M/C797S) cells; experiment: as above; type: cell-based; conditions: Ba/F3 cells expressing EGFR Del19/T790M/C797S
Summary of the method: as §1

EGFR (L861Q) = target: T1, EGFR (L861Q) (Homo sapiens, UniProt P00533, L861Q); experiment: scanMAX Kinase analysis panel (DiscoverX), control percentage; type: binding; conditions: 1 μM in DMSO
T1 construct: purchased DiscoverX
Procedure: (§2) The following experiments were performed to evaluate the inhibitory activity of compounds according to the present invention against various enzymes. Specifically, with respect to the compound of Example 2 selected from the Example Compounds of the present invention, the enzyme (kinase) selectivity was measured by requesting DiscoverX company, and the experiment was conducted using a scanMAX™ Kinase analysis panel. Here, the concentration of the drug treated with the enzyme was 1 μM in DMSO, and the control percentage (% control) was determined by the following Equation 1.
(§3) (Example Compound−positive control)/(negative control−positive control)×100 [Equation 1]
(§4) Here, the positive control indicates a compound showing the control percentage of 0%, and the negative control indicates DMSO showing the control percentage of 100%. Further, regarding the enzyme selectivity of the present invention, when the control percentage for each enzyme was <30% (i.e., less than 30%), the compound was determined to have the activity against the corresponding enzyme.

EGFR (L858R, T790M) = target: T2, EGFR (L858R, T790M) (Homo sapiens, UniProt P00533, L858R/T790M); experiment: as above; type: binding; conditions: 1 μM in DMSO
T2 construct: purchased DiscoverX
Procedure: as §2, §3, §4

[2] = target: T3, EGFR (L747-S752del, P753S) (Homo sapiens, UniProt P00533, DEL747-752/P753S); experiment: as above; type: binding; conditions: 1 μM in DMSO
T3 construct: purchased DiscoverX
T3 sequence (P00533 with tags, fused parts or gaps DEL747-752/P753S): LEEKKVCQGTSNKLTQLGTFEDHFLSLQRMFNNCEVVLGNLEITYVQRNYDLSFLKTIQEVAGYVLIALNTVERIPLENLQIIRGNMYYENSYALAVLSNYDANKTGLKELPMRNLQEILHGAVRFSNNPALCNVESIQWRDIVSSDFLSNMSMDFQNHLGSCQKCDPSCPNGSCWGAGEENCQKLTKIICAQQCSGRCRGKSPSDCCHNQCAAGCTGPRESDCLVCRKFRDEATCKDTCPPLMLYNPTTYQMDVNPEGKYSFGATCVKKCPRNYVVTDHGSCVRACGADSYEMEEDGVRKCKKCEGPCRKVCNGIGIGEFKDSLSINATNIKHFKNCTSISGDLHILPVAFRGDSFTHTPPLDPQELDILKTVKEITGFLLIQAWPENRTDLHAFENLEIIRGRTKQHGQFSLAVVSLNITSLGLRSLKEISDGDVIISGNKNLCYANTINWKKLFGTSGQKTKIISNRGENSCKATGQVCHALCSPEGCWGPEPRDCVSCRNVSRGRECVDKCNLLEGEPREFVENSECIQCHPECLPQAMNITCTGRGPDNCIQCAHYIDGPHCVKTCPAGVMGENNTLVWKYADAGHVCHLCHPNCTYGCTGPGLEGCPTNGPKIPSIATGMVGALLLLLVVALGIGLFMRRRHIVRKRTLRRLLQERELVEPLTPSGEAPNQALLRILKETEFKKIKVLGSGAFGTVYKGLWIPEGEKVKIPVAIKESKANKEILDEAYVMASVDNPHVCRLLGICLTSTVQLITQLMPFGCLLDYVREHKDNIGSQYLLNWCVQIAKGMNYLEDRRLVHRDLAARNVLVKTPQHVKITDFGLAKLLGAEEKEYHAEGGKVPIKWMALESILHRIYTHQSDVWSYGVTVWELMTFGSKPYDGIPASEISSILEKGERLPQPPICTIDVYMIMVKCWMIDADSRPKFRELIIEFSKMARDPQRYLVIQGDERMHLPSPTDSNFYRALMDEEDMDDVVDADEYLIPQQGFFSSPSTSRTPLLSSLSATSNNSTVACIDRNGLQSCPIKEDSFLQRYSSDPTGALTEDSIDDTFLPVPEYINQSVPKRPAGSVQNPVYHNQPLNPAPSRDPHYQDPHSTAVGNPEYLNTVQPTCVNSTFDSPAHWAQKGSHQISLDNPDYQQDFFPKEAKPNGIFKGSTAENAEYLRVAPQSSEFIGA
Procedure: as §2, §3, §4

EGFR (G719S) = target: T4, EGFR (G719S) (Homo sapiens, UniProt P00533, G719S); experiment: as above; type: binding; conditions: 1 μM in DMSO
T4 construct: purchased DiscoverX
Procedure: as §2, §3, §4

EGFR (L858R) = target: T5, EGFR (L858R) (Homo sapiens, UniProt P00533, L858R); experiment: as above; type: binding; conditions: 1 μM in DMSO
T5 construct: purchased DiscoverX
Procedure: as §2, §3, §4

EGFR = target: T6, EGFR (Homo sapiens, UniProt P00533); experiment: as above; type: binding; conditions: 1 μM in DMSO
T6 construct: purchased DiscoverX
T6 sequence (P00533 25-1210): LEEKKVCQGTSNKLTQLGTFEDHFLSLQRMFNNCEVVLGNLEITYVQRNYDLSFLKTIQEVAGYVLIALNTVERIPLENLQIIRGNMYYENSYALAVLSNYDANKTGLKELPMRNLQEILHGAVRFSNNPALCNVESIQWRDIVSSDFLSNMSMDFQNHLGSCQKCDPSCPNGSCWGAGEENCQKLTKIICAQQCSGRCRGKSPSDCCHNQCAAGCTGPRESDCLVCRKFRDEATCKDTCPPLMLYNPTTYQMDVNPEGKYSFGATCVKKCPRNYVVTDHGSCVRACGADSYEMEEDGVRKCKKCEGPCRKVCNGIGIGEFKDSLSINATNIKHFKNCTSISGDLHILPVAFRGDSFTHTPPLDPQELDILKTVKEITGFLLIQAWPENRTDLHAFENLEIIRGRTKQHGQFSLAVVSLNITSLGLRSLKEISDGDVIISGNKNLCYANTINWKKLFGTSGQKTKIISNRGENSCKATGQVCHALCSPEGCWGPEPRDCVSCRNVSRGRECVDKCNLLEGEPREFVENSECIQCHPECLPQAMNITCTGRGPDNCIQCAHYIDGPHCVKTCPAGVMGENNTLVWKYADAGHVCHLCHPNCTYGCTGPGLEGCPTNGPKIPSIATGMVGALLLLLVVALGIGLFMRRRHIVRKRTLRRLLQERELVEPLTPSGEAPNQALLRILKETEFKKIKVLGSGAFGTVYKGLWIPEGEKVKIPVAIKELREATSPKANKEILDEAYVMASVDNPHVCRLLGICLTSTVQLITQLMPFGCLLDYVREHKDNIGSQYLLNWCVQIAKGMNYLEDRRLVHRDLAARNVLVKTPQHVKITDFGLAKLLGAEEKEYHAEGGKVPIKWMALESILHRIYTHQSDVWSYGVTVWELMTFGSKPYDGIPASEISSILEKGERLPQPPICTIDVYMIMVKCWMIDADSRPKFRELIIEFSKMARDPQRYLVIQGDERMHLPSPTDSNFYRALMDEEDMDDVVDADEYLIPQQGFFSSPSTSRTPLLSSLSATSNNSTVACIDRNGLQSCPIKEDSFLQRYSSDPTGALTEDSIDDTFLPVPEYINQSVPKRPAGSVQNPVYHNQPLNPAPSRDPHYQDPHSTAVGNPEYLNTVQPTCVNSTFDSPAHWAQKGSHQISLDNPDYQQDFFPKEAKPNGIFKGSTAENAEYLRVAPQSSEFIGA
Procedure: as §2, §3, §4

EGFR (T790M) = target: T7, EGFR (T790M) (Homo sapiens, UniProt P00533, T790M); experiment: as above; type: binding; conditions: 1 μM in DMSO
T7 construct: purchased DiscoverX
Procedure: as §2, §3, §4

EGFR (G719C) = target: T8, EGFR (G719C) (Homo sapiens, UniProt P00533, G719C); experiment: as above; type: binding; conditions: 1 μM in DMSO
T8 construct: purchased DiscoverX
Procedure: as §2, §3, §4

[3] = test system: EGFR (L747-T751del, Sins); experiment: as above; type: binding; conditions: 1 μM in DMSO
Procedure: as §2, §3, §4

EGFR(S752-I759del) = target: T9, EGFR(S752-I759del) (Homo sapiens, UniProt P00533, DEL752-759); experiment: as above; type: binding; conditions: 1 μM in DMSO
T9 construct: purchased DiscoverX
Procedure: as §2, §3, §4

[4] = target: T10, EGFR (L747-E749del, A750P) (Homo sapiens, UniProt P00533, A750P/DEL747-749); experiment: as above; type: binding; conditions: 1 μM in DMSO
T10 construct: purchased DiscoverX
Procedure: as §2, §3, §4

EGFR (E746-A750del) = target: T11, EGFR (E746-A750del) (Homo sapiens, UniProt P00533, DEL746-750); experiment: as above; type: binding; conditions: 1 μM in DMSO
T11 construct: purchased DiscoverX
T11 sequence (P00533 with tags, fused parts or gaps DEL746-750): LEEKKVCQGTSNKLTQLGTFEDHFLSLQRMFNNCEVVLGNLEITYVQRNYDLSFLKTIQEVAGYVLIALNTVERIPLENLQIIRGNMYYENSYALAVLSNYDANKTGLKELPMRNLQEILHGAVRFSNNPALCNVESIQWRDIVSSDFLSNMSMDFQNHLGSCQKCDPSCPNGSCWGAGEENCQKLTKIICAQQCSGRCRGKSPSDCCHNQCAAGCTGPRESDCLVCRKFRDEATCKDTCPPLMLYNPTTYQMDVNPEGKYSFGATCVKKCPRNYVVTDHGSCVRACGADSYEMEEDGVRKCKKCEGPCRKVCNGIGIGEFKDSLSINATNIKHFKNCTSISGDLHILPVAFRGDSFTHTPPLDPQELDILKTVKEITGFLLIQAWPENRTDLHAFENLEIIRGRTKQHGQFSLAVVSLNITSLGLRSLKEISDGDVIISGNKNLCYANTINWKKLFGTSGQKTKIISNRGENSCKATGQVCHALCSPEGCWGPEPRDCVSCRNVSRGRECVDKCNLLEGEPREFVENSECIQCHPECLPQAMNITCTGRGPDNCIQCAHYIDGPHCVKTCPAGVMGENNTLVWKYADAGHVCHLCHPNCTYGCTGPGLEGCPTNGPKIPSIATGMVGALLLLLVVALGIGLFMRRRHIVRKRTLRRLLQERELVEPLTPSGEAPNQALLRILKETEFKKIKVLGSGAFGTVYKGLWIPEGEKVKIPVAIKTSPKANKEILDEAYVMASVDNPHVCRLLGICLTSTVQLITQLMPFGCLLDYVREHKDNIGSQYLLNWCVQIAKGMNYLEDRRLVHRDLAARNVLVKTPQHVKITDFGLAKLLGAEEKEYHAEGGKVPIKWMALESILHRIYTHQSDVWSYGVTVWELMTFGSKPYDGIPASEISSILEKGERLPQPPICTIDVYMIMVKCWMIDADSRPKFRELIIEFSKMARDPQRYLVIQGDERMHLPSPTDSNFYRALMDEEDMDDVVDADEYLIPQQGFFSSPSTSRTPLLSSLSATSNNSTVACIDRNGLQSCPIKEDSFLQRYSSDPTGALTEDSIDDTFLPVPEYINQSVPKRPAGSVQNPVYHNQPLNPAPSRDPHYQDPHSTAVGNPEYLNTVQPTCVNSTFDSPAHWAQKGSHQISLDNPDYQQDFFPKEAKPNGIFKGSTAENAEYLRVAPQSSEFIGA
Procedure: as §2, §3, §4

EGFR Del19/T790M/C797S = EGFR Del19/T790M/C797S (Homo sapiens, UniProt P00533, C797S/T790M, form not given); experiment: Enzyme IC50, EGFR Del19/T790M/C797S; type: biochemical
EGFR Del19/T790M/C797S, sequence (P00533 25-1210 T790M/C797S, form open): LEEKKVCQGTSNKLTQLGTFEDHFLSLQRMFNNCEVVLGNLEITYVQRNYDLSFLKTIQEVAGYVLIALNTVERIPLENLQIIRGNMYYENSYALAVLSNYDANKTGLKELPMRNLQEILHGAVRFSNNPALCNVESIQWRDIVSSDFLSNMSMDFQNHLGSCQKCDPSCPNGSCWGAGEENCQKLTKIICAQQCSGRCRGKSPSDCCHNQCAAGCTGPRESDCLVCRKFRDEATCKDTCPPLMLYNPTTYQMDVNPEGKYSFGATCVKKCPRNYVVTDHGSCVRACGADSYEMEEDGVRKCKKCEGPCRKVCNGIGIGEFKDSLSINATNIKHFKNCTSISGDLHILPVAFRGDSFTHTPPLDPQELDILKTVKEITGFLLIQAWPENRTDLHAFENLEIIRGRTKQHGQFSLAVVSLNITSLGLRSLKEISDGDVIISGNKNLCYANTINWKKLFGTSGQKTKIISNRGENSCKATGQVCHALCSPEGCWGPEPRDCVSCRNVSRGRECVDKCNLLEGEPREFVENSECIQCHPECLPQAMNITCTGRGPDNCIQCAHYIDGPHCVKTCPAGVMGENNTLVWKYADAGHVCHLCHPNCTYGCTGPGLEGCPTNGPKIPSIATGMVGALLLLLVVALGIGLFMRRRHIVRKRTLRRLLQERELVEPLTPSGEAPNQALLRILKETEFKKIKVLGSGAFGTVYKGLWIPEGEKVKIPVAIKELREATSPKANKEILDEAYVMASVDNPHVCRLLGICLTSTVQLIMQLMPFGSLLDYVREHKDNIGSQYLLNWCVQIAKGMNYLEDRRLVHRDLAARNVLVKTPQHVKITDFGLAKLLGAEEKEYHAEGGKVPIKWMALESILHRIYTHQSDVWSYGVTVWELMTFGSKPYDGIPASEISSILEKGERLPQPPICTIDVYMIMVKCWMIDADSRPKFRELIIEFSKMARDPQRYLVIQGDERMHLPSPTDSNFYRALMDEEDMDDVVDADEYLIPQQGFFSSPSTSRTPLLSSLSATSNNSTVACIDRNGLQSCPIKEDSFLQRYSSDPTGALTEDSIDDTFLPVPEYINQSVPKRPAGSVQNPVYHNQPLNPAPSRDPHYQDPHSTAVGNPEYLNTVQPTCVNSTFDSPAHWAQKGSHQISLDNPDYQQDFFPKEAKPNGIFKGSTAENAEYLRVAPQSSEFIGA

## COc1cc(N2CCC(N3CCN(C)CC3)CC2)c(C)cc1Nc1nc(Nc2ccc3nccnc3c2P(C)(C)=O)c2cc[nH]c2n1 [Example 54, (6-((2-((2-methoxy-5-methyl-4-(4-(4-methyl-piperazin-1-yl)piperidin-1-yl)phenyl)amino)-7H-pyrrolo[2,3-d]pyrimidin-4-yl)amino)quinoxalin-5-yl)dimethyl-phosphine oxide]
BaF3-EGFR (WT) cells
  GI50: > 0.1 µM
[1]
  GI50: ≤ 0.05 µM
EGFR (L861Q)
  remaining binding at 1 µM: < 30%
EGFR (L858R, T790M)
  remaining binding at 1 µM: < 30%
[2]
  remaining binding at 1 µM: < 30%
EGFR (G719S)
  remaining binding at 1 µM: < 30%
EGFR (L858R)
  remaining binding at 1 µM: < 30%
EGFR
  remaining binding at 1 µM: < 30%
EGFR (T790M)
  remaining binding at 1 µM: < 30%
EGFR (G719C)
  remaining binding at 1 µM: < 30%
[3]
  control percentage (% control): < 30%
EGFR(S752-I759del)
  remaining binding at 1 µM: < 30%
[4]
  remaining binding at 1 µM: < 30%
EGFR (E746-A750del)
  remaining binding at 1 µM: < 30%
EGFR Del19/T790M/C797S
  IC50: ≤ 0.05 µM

## COc1cc(N2CCN(C(=O)C3(F)CC3)CC2)c(-c2cnn(C)c2)cc1Nc1nc(Nc2ccc3nccnc3c2P(C)(C)=O)c2cc[nH]c2n1 [Example 112, (4-(4-((4-((5-(dimethyl-phosphoryl)quinoxalin-6-yl)amino)-7H-pyrrolo[2,3-d]pyrimidin-2-yl)amino)-5-methoxy-2-(1-methyl-1H-pyrazol-4-yl)phenyl)piperazin-1-yl)(1-fluorocyclo-propyl) methanone]
BaF3-EGFR (WT) cells
  GI50: > 0.1 µM
[1]
  GI50: ≤ 0.05 µM
EGFR Del19/T790M/C797S
  IC50: 0.05 to 0.1 µM

## COc1cc(N2CCN(CC3(F)CC3)CC2)c(-c2cnn(C)c2)cc1Nc1nc(Nc2ccc3nccnc3c2P(C)(C)=O)c2cc[nH]c2n1 [Example 113, (6-((2-((4-(4-((1-fluorocyclo-propyl)methyl)piperazin-1-yl)-2-methoxy-5-(1-methyl-1H-pyrazol-4-yl)phenyl)amino)-7H-pyrrolo[2,3-d]pyrimidin-4-yl)amino)quinoxalin-5-yl)dimethyl-phosphine oxide]
BaF3-EGFR (WT) cells
  GI50: > 0.1 µM
[1]
  GI50: ≤ 0.05 µM
EGFR Del19/T790M/C797S
  IC50: ≤ 0.05 µM

## COc1cc(N2CCC3(CCN(CC4(F)CC4)CC3)CC2)c(-c2cnn(C)c2)cc1Nc1nc(Nc2ccc3nccnc3c2P(C)(C)=O)c2cc[nH]c2n1 [Example 114, (6-((2-((4-(9-((1-fluorocyclo-propyl)methyl)-3,9-diazaspiro[5.5]undecan-3-yl)-2-methoxy-5-(1-methyl-1H-pyrazol-4-yl)phenyl)amino)-7H-pyrrolo[2,3-d]pyrimidin-4-yl)amino)quinoxalin-5-yl)dimethyl-phosphine oxide]
BaF3-EGFR (WT) cells
  GI50: > 0.1 µM
[1]
  GI50: ≤ 0.05 µM
EGFR Del19/T790M/C797S
  IC50: ≤ 0.05 µM

## COc1cc(N2CCN(C)CC2)c(-c2cnn(C3CC3)c2)cc1Nc1nc(Nc2ccc3nccnc3c2P(C)(C)=O)c2cc[nH]c2n1 [Example 115, (6-((2-((5-(1-cyclopropyl-1H-pyrazol-4-yl)-2-methoxy-4-(4-methylpiperazin-1-yl)phenyl)amino)-7H-pyrrolo[2,3-d]pyrimidin-4-yl)amino)quinoxalin-5-yl)dimethyl-phosphine oxide]
BaF3-EGFR (WT) cells
  GI50: > 0.1 µM
[1]
  GI50: 0.05 to 0.1 µM
EGFR Del19/T790M/C797S
  IC50: ≤ 0.05 µM

## CN1CCN(c2c(-c3cnn(C)c3)cc(Nc3nc(Nc4ccc5nccnc5c4P(C)(C)=O)c4cc[nH]c4n3)c3c2CCO3)CC1 [Example 116, dimethyl (6-((2-((5-(1-methyl-1H-pyrazol-4-yl)-4-(4-methyl-piperazin-1-yl)-2,3-dihydrobenzo-furan-7-yl)amino)-7H-pyrrolo[2,3-d]pyrimidin-4-yl)amino)quinoxalin-5-yl)phosphine oxide]
BaF3-EGFR (WT) cells
  GI50: > 0.1 µM
[1]
  GI50: ≤ 0.05 µM
EGFR Del19/T790M/C797S
  IC50: ≤ 0.05 µM

## CN1CCN(C2CCN(c3c(-c4cnn(C)c4)cc(Nc4nc(Nc5ccc6nccnc6c5P(C)(C)=O)c5cc[nH]c5n4)c4c3CCO4)CC2)CC1 [Example 117, dimethyl (6-((2-((5-(1-methyl-1H-pyrazol-4-yl)-4-(4-(4-methylpiperazin-1-yl)piperidin-1-yl)-2,3-dihydrobenzo-furan-7-yl)amino)-7H-pyrrolo[2,3-d]pyrimidin-4-yl)amino)quinoxalin-5-yl)phosphine oxide]
BaF3-EGFR (WT) cells
  GI50: > 0.1 µM
[1]
  GI50: ≤ 0.05 µM
EGFR Del19/T790M/C797S
  IC50: ≤ 0.05 µM

## Cn1cc(-c2cc(Nc3nc(Nc4ccc5nccnc5c4P(C)(C)=O)c4cc[nH]c4n3)c3c(c2N2CCC(N4CCOCC4)CC2)CCO3)cn1 [Example 120, dimethyl (6-((2-((5-(1-methyl-1H-pyrazol-4-yl)-4-(4-morpholino-piperidin-1-yl)-2,3-dihydrobenzo-furan-7-yl)amino)-7H-pyrrolo[2,3-d]pyrimidin-4-yl)amino)quinoxalin-5-yl)phosphine oxide]
BaF3-EGFR (WT) cells
  GI50: 0.05 to 0.1 µM
[1]
  GI50: ≤ 0.05 µM
EGFR Del19/T790M/C797S
  IC50: ≤ 0.05 µM

## Cc1cc(Nc2nc(Nc3ccc4nccnc4c3P(C)(C)=O)c3cc[nH]c3n2)c2c(c1N1CCOCC1)CCO2 [Example 122, dimethyl (6-((2-((5-methyl-4-morpholino-2,3-dihydrobenzo-furan-7-yl)amino)-7H-pyrrolo[2,3-d]pyrimidin-4-yl)amino)quinoxalin-5-yl)phosphine oxide]
BaF3-EGFR (WT) cells
  GI50: > 0.1 µM
[1]
  GI50: > 0.1 µM
EGFR Del19/T790M/C797S
  IC50: ≤ 0.05 µM

## Cn1nccc1-c1ccc(Nc2nc(Nc3ccc4nccnc4c3P(C)(C)=O)c3cc[nH]c3n2)c2c1OCCO2 [Example 131, dimethyl (6-((2-((8-(1-methyl-1H-pyrazol-5-yl)-2,3-dihydrobenzo [b][1,4]dioxin-5-yl)amino)-7H-pyrrolo[2,3-d]pyrimidin-4-yl)amino)quinoxalin-5-yl)phosphine oxide]
BaF3-EGFR (WT) cells
  GI50: > 0.1 µM
[1]
  GI50: > 0.1 µM
EGFR Del19/T790M/C797S
  IC50: > 0.1 µM

## C=CC(=O)Nc1cc(Nc2nc(Nc3ccc4nccnc4c3P(C)(C)=O)c3cc[nH]c3n2)c2c(c1N1CCC(N3CCN(C4CC4)CC3)CC1)OCCO2 [Example 133, N-(5-(4-(4-cyclopropyl-piperazin-1-yl)piperidin-1-yl)-8-((4-((5-(dimethyl-phosphoryl)quinoxalin-6-yl)amino)-7H-pyrrolo[2,3-d]pyrimidin-2-yl)amino)-2,3-dihydrobenzo [b][1,4]dioxin-6-yl)acrylamide]
BaF3-EGFR (WT) cells
  GI50: ≤ 0.05 µM
[1]
  GI50: > 0.1 µM
EGFR Del19/T790M/C797S
  IC50: ≤ 0.05 µM

## CP(C)(=O)c1c(Nc2nc(Nc3cc([N+](=O)[O-])c(N4CCC(N5CCN(C6CC6)CC5)CC4)c4c3OCCO4)nc3[nH]ccc23)ccc2nccnc12 [Example 134, (6-((2-((8-(4-(4-cyclopropyl-piperazin-1-yl)piperidin-1-yl)-7-nitro-2,3-dihydrobenzo [b][1,4]dioxin-5-yl)amino)-7H-pyrrolo[2,3-d]pyrimidin-4-yl)amino)quinoxalin-5-yl)dimethyl-phosphine oxide]
BaF3-EGFR (WT) cells
  GI50: 0.05 to 0.1 µM
[1]
  GI50: > 0.1 µM
EGFR Del19/T790M/C797S
  IC50: ≤ 0.05 µM

## Cn1cc(-c2cc(N3CCOCC3)c3c(c2Nc2nc(Nc4ccc5nccnc5c4P(C)(C)=O)c4cc[nH]c4n2)OCCO3)cn1 [Example 135, dimethyl (6-((2-((6-(1-methyl-1H-pyrazol-4-yl)-8-morpholino-2,3-dihydrobenzo [b][1,4]dioxin-5-yl)amino)-7H-pyrrolo[2,3-d]pyrimidin-4-yl)amino)quinoxalin-5-yl)phosphine oxide]
BaF3-EGFR (WT) cells
  GI50: > 0.1 µM
[1]
  GI50: > 0.1 µM
EGFR Del19/T790M/C797S
  IC50: > 0.1 µM

## Cn1ncc(Nc2nc(Nc3ccc4nccnc4c3P(C)(C)=O)c3cc[nH]c3n2)c1Cl [Example 137, (6-((2-((5-chloro-1-methyl-1H-pyrazol-4-yl)amino)-7H-pyrrolo[2,3-d]pyrimidin-4-yl)amino)quinoxalin-5-yl)dimethyl-phosphine oxide]
BaF3-EGFR (WT) cells
  GI50: > 0.1 µM
[1]
  GI50: > 0.1 µM
EGFR Del19/T790M/C797S
  IC50: ≤ 0.05 µM
